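Growth conditions: 96-well plates. Treatment: test compound, 48 hours, 5 concentrations. Analysis: linear interpolation between bracketing concentrations; unreached endpoints set to highest concentration. Here, GI50 denotes the concentration required for 50% inhibition of growth.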 Activity calls are given as the source filed them. Rule as the data show it: active = GI50 up to about 1.1 µM and inactive = higher.
Key:
Test in all cases: NCI anticancer screen, dose series, 48 h
[1] = tested on: HCT-15
[2] = tested on: HOP-62
[3] = tested on: PC-3
[4] = tested on: SK-MEL-2
[5] = tested on: SN12C
[6] = tested on: SF-268
[7] = tested on: MDA-MB-231
[8] = tested on: NCI-H460
[9] = tested on: 786-0
[10] = tested on: SK-OV-3
[11] = tested on: NCI-H23
[12] = tested on: MOLT-4
[13] = tested on: ACHN
[14] = tested on: M14
[15] = tested on: RXF 393
[16] = tested on: DU-145
[17] = tested on: A498
[18] = tested on: CCRF-CEM
[19] = tested on: SNB-75
[20] = tested on: OVCAR-8

Measured: GI50

c1ccc(-c2nc3ccccc3n3nnnc23)cc1
inactive: [2] 63.5 µM | [3] > 100 µM | [4] > 100 µM | [5] > 100 µM | [6] 75.7 µM | [7] > 100 µM | [8] > 100 µM | [9] 57.1 µM | [10] > 100 µM | [11] > 100 µM | [12] > 100 µM | [13] > 100 µM | [14] > 100 µM | [15] 52.1 µM | [16] > 100 µM | [17] > 100 µM | [18] > 100 µM
> 100 µM: [1]

[N-]=[N+]=NCC1OCC(O)C(OCc2ccccc2)C1OCc1ccccc1 (stereo unspecified)
inactive: [2] > 100 µM | [3] 73.1 µM | [4] 39.4 µM | [5] > 100 µM | [6] > 100 µM | [7] > 100 µM | [8] 48.2 µM | [9] 81.5 µM | [10] > 100 µM | [11] > 100 µM | [12] 37.1 µM | [13] > 100 µM | [14] > 100 µM | [19] 20.5 µM | [16] 86.7 µM | [20] > 100 µM | [17] > 100 µM | [18] 83.4 µM
61 µM: [1]

CC(C)(SCc1ccccc1)C(N)C(=O)O (stereo unspecified)
inactive: [2] > 100 µM | [3] > 100 µM | [4] > 100 µM | [5] > 100 µM | [6] > 100 µM | [7] > 100 µM | [8] > 100 µM | [9] > 100 µM | [11] > 100 µM | [12] > 100 µM | [13] > 100 µM | [14] > 100 µM | [15] > 100 µM | [19] > 100 µM | [16] > 100 µM | [20] > 100 µM | [17] > 100 µM | [18] > 100 µM
> 100 µM: [1]

CO[C@]12CC(=O)C3(C(C[C@H]4CC5CCC6=CC(=O)CC[C@]6(OC(C)=O)C5C[C@@]43C)C1)C1C[C@H]3[C@@H]4CCC5=CC(=O)CC[C@]5(OC(C)=O)[C@H]4CC[C@]3(C)C12 (stereo partly specified)
> 100 µM: [1]
inactive: [2] > 100 µM | [3] > 100 µM | [4] > 100 µM | [5] > 100 µM | [6] > 100 µM | [7] 27.5 µM | [8] > 100 µM | [9] > 100 µM | [10] > 100 µM | [11] > 100 µM | [12] > 100 µM | [13] > 100 µM | [14] > 100 µM | [19] > 100 µM | [16] > 100 µM | [20] > 100 µM | [17] > 100 µM | [18] > 100 µM

COc1cccc(NC(=O)CC(=O)N2N=C(C)C(/N=N/c3ccc(S(=O)(=O)CCOS(=O)(=O)O)cc3)C2=O)c1 (stereo unspecified)
3.42 µM: [1]
inactive: [2] 13 µM | [3] 3.85 µM | [4] 2.04 µM | [5] 5.05 µM | [6] 7.82 µM | [7] 4.63 µM | [8] 4.49 µM | [9] 2.74 µM | [11] 4.69 µM | [12] 2.26 µM | [13] 3.99 µM | [14] 5.83 µM | [15] 4.06 µM | [19] 3.27 µM | [16] 14.8 µM | [20] 3.18 µM | [17] 10.8 µM | [18] 2.62 µM

O=C(NN1C(=O)CSC1c1ccco1)c1ccncc1 (stereo unspecified)
> 100 µM: [1]
inactive: [2] > 100 µM | [3] > 100 µM | [4] > 100 µM | [5] > 100 µM | [6] > 100 µM | [7] > 100 µM | [8] > 100 µM | [9] > 100 µM | [10] > 100 µM | [11] > 100 µM | [12] > 100 µM | [13] > 100 µM | [14] > 100 µM | [15] > 100 µM | [16] > 100 µM | [20] > 100 µM | [17] > 100 µM | [18] > 100 µM

COc1c2ccoc2c(OC)c2oc(=O)ccc12 [ISOPIMPINELLIN]
> 100 µM: [1]
inactive: [2] > 100 µM | [3] > 100 µM | [5] > 100 µM | [6] > 100 µM | [7] > 100 µM | [8] > 100 µM | [9] > 100 µM | [11] > 100 µM | [12] > 100 µM | [13] > 100 µM | [14] > 100 µM | [15] 45.8 µM | [19] 13.1 µM | [16] > 100 µM | [20] > 100 µM | [17] > 100 µM | [18] > 100 µM

— ChEMBL document CHEMBL1201862, “PubChem BioAssay data set” (2004)
